Laboratory results as given in ChEMBL document CHEMBL4616684, “Potential Cancer Treatment by Agonists of the Stimulator of Interferon Genes” (ACS Med Chem Lett, 2020).

How the values were obtained:
[1] = molecular target: Stimulator of interferon genes protein (Homo sapiens, UniProt Q86WV6, G230A/R293Q/R71H); experiment: Activation of full length human STNG R71H/G230A/R293Q mutant expressed in Trichoplusia ni cell membrane incubated for 60 mins followed by addition of [3H]cGAMP by competitive binding assay; assay type: cell membranes
[2] = molecular target: Stimulator of interferon genes protein (Homo sapiens) (UniProt Q86WV6); experiment: Agonist activity at STING in human THP1 cells assessed as assessed as increase in IFNbeta secretion at 30 uM measured after 5 hrs by AlphaLISA assay relative to 2'3'-cGAMP; assay type: cell-based; settings: THP-1
Sequence of Stimulator of interferon genes protein (Homo sapiens) (Q86WV6 whole entry): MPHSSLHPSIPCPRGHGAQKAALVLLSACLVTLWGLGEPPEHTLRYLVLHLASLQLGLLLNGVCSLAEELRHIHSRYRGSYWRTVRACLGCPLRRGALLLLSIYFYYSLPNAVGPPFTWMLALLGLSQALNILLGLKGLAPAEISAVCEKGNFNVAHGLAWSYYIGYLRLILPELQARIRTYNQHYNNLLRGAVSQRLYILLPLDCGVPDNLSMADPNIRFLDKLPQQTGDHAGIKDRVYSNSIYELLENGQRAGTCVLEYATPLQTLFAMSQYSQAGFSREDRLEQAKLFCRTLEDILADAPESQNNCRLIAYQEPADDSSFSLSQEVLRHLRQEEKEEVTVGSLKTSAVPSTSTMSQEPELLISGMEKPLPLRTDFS

Sequence of Stimulator of interferon genes protein (Q86WV6 whole entry R71H/G230A/R293Q): as the sequence (Q86WV6 whole entry) above, with R71H, G230A, R293Q counted along it

| Compound | EC50 [1] [µM] | Activity [2] [%] |
| --- | --- | --- |
| COc1cc2cc(C(=O)CCC(=O)O)sc2nc1OC | 5.51 | 146 |
| COc1cc2sc(C(=O)C[C@H](C)C(=O)O)nc2nc1OC | 10.1 | 14 |
| COc1cc2nc(C(=O)CCC(=O)O)sc2cc1OC | 13.3 | 56 |

Further molecules by falling EC50 [1], results first:

| EC50 [1] [µM] | Activity [2] [%] | Compound |
| --- | --- | --- |
| 10.6 | 11 | COc1cc2sc(C(=O)C[C@H](C)C(=O)O)nc2cc1Br |
| 1.75 | 85 | CCC(CC(=O)c1cc2nc(OC)c(OC)cc2s1)C(=O)O (configuration not stated) |
| 1.15 | 100 | COc1cc2sc(C(=O)C3CC3C(=O)O)cc2nc1OC (configuration not stated) |
